Results from patent publication US20260176320A1, “MODULATORS OF G-PROTEIN COUPLED RECEPTORS” (priority 2018, published 2026).
Like-named read-outs stand apart in the source and are kept apart here.

Experiments:
[1] = target: GLP-1R (Homo sapiens, UniProt P43220); experiment: HitHunter cAMP assay (GLP-1R); type: cell-based; details: cAMP; for Emax: read-out: (Emax) GLP-1R
Protocol: (§1) Suspension cells were harvested and resuspended in 1×HBSS (+10 mM HEPES, 625 μM IBMX, 0.2% BSA) according to the following procedure: 5 μL of 2× cell suspension+1× antibody were added to each well, where the optimal cell density was 10,000 cells per well in a low volume 384-well plate. Agonist serial dilutions in a separate 384 well dilution plate in a 22-point series of 2× dilutions of agonist in DMSO were performed as follows. 80 μL of the highest concentration of Agonist/DMSO was added to well No. 1. 40 μL was removed from well No. 1 and added it to well No. 2, followed by gentle mixing. […] This process was repeated until well No. 22. Additional serial dilutions for additional agonists were set up in a similar manner. 50 nL of each 2× agonist serial dilution was added in duplicate to the designated agonist rows of the assay plate using the Labcyte ECHO. Assay plate was incubated for 30 minutes at room temperature. Following agonist incubation, 5 μL of cAMP Antibody Reagent was added to all wells. […] Plates were spun down briefly. Assay plate was incubated for 1 hour at room temperature in the dark for the immunocompetition reaction to occur. […] Plates were spun down briefly. Assay plate was incubated O/N at room temperature in the dark. Samples were read on Tecan i-control plate reader using luminescence mode with 300 ms integration time. Data analysis was performed using GraphPad Prism.

[2] = target: T1, GIP-R (Homo sapiens, UniProt P48546); experiment: HitHunter cAMP assay (GIP-R); type: cell-based; details: cAMP; for Emax: read-out: (Emax) GIP-R; for Emax at 1 µM: read-out: (Emax) GIP-R at 1 μM, Table 3
T1 sequence (P48546 22-466): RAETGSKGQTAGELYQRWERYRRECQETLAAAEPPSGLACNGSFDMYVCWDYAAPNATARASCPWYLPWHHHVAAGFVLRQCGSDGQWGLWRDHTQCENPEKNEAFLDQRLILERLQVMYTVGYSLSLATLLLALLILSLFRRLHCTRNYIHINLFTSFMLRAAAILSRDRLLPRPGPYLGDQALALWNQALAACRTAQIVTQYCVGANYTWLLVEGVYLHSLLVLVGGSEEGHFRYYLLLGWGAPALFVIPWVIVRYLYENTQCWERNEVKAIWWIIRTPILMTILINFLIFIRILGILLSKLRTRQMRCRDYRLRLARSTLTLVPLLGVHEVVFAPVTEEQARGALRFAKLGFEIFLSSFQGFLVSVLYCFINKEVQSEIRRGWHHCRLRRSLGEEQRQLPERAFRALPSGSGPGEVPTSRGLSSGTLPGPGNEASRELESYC
Protocol: as §1

[3] = Table 3, read-out: EC50 GLP-1R/nM
[4] = Table 3A, read-out: EC50 GLP-1R/nM
[5] = Table 3, read-out: EC50 GIP-R/nM
[6] = Table 3A, read-out: EC50 GIP-R/nM

Sequence of GLP-1R (P43220 24-463): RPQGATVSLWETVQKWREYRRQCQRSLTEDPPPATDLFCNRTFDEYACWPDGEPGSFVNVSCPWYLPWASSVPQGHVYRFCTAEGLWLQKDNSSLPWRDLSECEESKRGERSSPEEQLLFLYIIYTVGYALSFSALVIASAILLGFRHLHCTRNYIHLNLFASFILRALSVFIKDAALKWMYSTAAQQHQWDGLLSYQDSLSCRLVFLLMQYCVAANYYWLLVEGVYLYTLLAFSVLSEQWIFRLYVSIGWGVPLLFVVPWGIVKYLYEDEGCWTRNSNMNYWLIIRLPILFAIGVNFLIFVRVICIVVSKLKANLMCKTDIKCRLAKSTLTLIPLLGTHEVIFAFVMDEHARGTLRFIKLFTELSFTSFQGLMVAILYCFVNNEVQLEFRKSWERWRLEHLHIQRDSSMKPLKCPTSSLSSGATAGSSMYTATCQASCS

| Compound | Emax ([1]; Table 3) [%] | EC50 [1, 3] [nM] | Emax ([1]; Table 3A) [%] | EC50 [1, 4] [nM] | Emax ([2]; Table 3) [%] | EC50 [2, 5] [nM] | Emax ([2]; Table 3A) [%] | EC50 [2, 6] [nM] | EC50 ([1]; EC50 GLP-1R/nM, Table 3) [nM] | EC50 ([1]; EC50 GLP-1R/nM, Table 3A) [nM] | EC50 ([2]; EC50 GIP-R/nM, Table 3) [nM] | EC50 ([2]; EC50 GIP-R/nM, Table 3A) [nM] | Emax at 1 µM [2] [%] | EC50 ([2]; read-out: EC50 GIP-R/nM, Table 3A) [nM] |
| --- | --- | --- | --- | --- | --- | --- | --- | --- | --- | --- | --- | --- | --- | --- |
| CCCCCCCCCCCCCCCC(=O)N[C@@H](CCC(=O)NCCCC[C@H](NC(=O)[C@H](CO)NC(=O)[C@@H]1CCCN1C(=O)[C@@H]1CCCN1C(=O)[C@@H]1CCCN1C(=O)[C@H](C)NC(=O)CNC(=O)[C@H](CO)NC(=O)[C@H](CO)NC(=O)[C@@H]1CCCN1C(=O)CNC(=O)CNC(=O)[C@H](C)NC(=O)[C@H](CC(C)C)NC(=O)[C@H](CC(C)C)NC(=O)[C@H](Cc1c[nH]c2ccccc12)NC(=O)[C@H](CC(N)=O)NC(=O)[C@@H](NC(=O)[C@H](Cc1ccccc1)NC(=O)[C@H](CCC(=O)O)NC(=O)C(C)(C)NC(=O)[C@H](C)NC(=O)[C@H](C)NC(=O)[C@H](CCC(N)=O)NC(=O)[C@H](CCCCN)NC(=O)[C@H](CC(=O)O)NC(=O)[C@H](CC(C)C)NC(=O)[C@H](Cc1ccc(O)cc1)NC(=O)[C@@H](NC(=O)[C@H](CO)NC(=O)[C@H](Cc1ccc(O)cc1)NC(=O)[C@H](CC(=O)O)NC(=O)[C@H](CO)NC(=O)[C@@H](NC(=O)[C@H](Cc1ccccc1)NC(=O)[C@@H](NC(=O)CNC(=O)[C@H](CCC(=O)O)NC(=O)CSCC(=O)NCCN1C(=O)CC(N)C1=O)[C@@H](C)O)[C@@H](C)O)[C@@H](C)CC)C(C)C)C(N)=O)C(=O)O (mixture of isomers) [Compound 67] | 100 | 0.1 to 1 | 100 | 0.1 to 1 | 65 | 1 to 10 | 65 | 1 to 10 |  |  |  |  |  |  |
| CCCCCCCCCCCCCCCC(=O)N[C@@H](CCC(=O)NCCCC[C@H](NC(=O)[C@H](CO)NC(=O)[C@@H]1CCCN1C(=O)[C@@H]1CCCN1C(=O)[C@@H]1CCCN1C(=O)[C@H](C)NC(=O)CNC(=O)[C@H](CO)NC(=O)[C@H](CO)NC(=O)[C@@H]1CCCN1C(=O)CNC(=O)CNC(=O)[C@H](C)NC(=O)[C@H](CC(C)C)NC(=O)[C@H](CC(C)C)NC(=O)[C@H](Cc1c[nH]c2ccccc12)NC(=O)[C@H](CC(N)=O)NC(=O)[C@@H](NC(=O)[C@H](Cc1ccccc1)NC(=O)[C@H](CCC(=O)O)NC(=O)C(C)(C)NC(=O)[C@H](C)NC(=O)[C@H](C)NC(=O)[C@H](CCC(N)=O)NC(=O)[C@H](CCCCN)NC(=O)[C@H](CC(=O)O)NC(=O)[C@H](CC(C)C)NC(=O)[C@H](Cc1ccc(O)cc1)NC(=O)[C@@H](NC(=O)[C@H](CO)NC(=O)[C@H](Cc1ccc(O)cc1)NC(=O)[C@H](CC(=O)O)NC(=O)[C@H](CO)NC(=O)[C@@H](NC(=O)[C@H](Cc1ccccc1)NC(=O)[C@@H](NC(=O)CNC(=O)[C@H](CCC(=O)O)NC(=O)CSCC(=O)NCCN1C(=O)SC(C)C1=O)[C@@H](C)O)[C@@H](C)O)[C@@H](C)CC)C(C)C)C(N)=O)C(=O)O (mixture of isomers) [Compound 90] | 108 |  | 108 |  | 74 |  | 74 |  | 1 to 10 | 1 to 10 | 1 to 10 | 1 to 10 |  |  |
| CCCCCCCCCCCCCCCC(=O)N[C@@H](CCC(=O)NCCCC[C@H](NC(=O)[C@H](CO)NC(=O)[C@@H]1CCCN1C(=O)[C@@H]1CCCN1C(=O)[C@@H]1CCCN1C(=O)[C@H](C)NC(=O)CNC(=O)[C@H](CO)NC(=O)[C@H](CO)NC(=O)[C@@H]1CCCN1C(=O)CNC(=O)CNC(=O)[C@H](C)NC(=O)[C@H](CC(C)C)NC(=O)[C@H](CC(C)C)NC(=O)[C@H](Cc1c[nH]c2ccccc12)NC(=O)[C@H](CC(N)=O)NC(=O)[C@@H](NC(=O)[C@H](Cc1ccccc1)NC(=O)[C@H](CCC(=O)O)NC(=O)C(C)(C)NC(=O)[C@H](C)NC(=O)[C@H](C)NC(=O)[C@H](CCC(N)=O)NC(=O)[C@H](CCCCN)NC(=O)[C@H](CC(=O)O)NC(=O)[C@H](CC(C)C)NC(=O)[C@H](Cc1ccc(O)cc1)NC(=O)[C@@H](NC(=O)[C@H](CO)NC(=O)[C@H](Cc1ccc(O)cc1)NC(=O)[C@H](CC(=O)O)NC(=O)[C@H](CO)NC(=O)[C@@H](NC(=O)[C@H](Cc1ccccc1)NC(=O)[C@@H](NC(=O)CNC(=O)[C@H](CCC(=O)O)NC(=O)CSCC(=O)NCCN1C(=O)CCC(c2ccccc2)C1=O)[C@@H](C)O)[C@@H](C)O)[C@@H](C)CC)C(C)C)C(N)=O)C(=O)O (mixture of isomers) [Compound 95] | 84 |  | 84 |  | 20 |  | 20 |  | 10 to 100 | 10 to 100 | 1 to 10 | 10 to 100 |  |  |
| CCCCCCCCCCCCCCCC(=O)N[C@@H](CCC(=O)NCCCC[C@H](NC(=O)[C@H](CO)NC(=O)[C@@H]1CCCN1C(=O)[C@@H]1CCCN1C(=O)[C@@H]1CCCN1C(=O)[C@H](C)NC(=O)CNC(=O)[C@H](CO)NC(=O)[C@H](CO)NC(=O)[C@@H]1CCCN1C(=O)CNC(=O)CNC(=O)[C@H](C)NC(=O)[C@H](CC(C)C)NC(=O)[C@H](CC(C)C)NC(=O)[C@H](Cc1c[nH]c2ccccc12)NC(=O)[C@H](CC(N)=O)NC(=O)[C@@H](NC(=O)[C@H](Cc1ccccc1)NC(=O)[C@H](CCC(=O)O)NC(=O)C(C)(C)NC(=O)[C@H](C)NC(=O)[C@H](C)NC(=O)[C@H](CCC(N)=O)NC(=O)[C@H](CCCCN)NC(=O)[C@H](CC(=O)O)NC(=O)[C@H](CC(C)C)NC(=O)[C@H](Cc1ccc(O)cc1)NC(=O)[C@@H](NC(=O)[C@H](CO)NC(=O)[C@H](Cc1ccc(O)cc1)NC(=O)[C@H](CC(=O)O)NC(=O)[C@H](CO)NC(=O)[C@@H](NC(=O)[C@H](Cc1ccccc1)NC(=O)[C@@H](NC(=O)CNC(=O)[C@H](CCC(=O)O)NC(=O)CSCC(=O)NCCN1C(=O)CC(c2ccccc2)C1=O)[C@@H](C)O)[C@@H](C)O)[C@@H](C)CC)C(C)C)C(N)=O)C(=O)O (mixture of isomers) [Compound 99] | 102 |  | 102 |  |  |  |  |  | 1 to 10 | 1 to 10 | > 1000 |  | 11 | > 1000 |
| CC[C@H](C)[C@H](NC(=O)[C@H](CO)NC(=O)[C@H](Cc1ccc(O)cc1)NC(=O)[C@H](CC(=O)O)NC(=O)[C@H](CO)NC(=O)[C@@H](NC(=O)[C@H](Cc1ccccc1)NC(=O)[C@@H](NC(=O)CNC(=O)[C@H](CCC(=O)O)NC(=O)CSCC(=O)NCCN1C(=O)CC(c2ccccc2)C1=O)[C@@H](C)O)[C@@H](C)O)C(=O)N[C@@H](Cc1ccc(O)cc1)C(=O)N[C@@H](CC(C)C)C(=O)N[C@@H](CC(=O)O)C(=O)N[C@@H](CCCCN)C(=O)N[C@@H](CCC(N)=O)C(=O)N[C@@H](C)C(=O)N[C@@H](C)C(=O)NC(C)(C)C(=O)N[C@@H](CCC(=O)O)C(=O)N[C@@H](Cc1ccccc1)C(=O)N[C@H](C(=O)N[C@@H](CC(N)=O)C(=O)N[C@@H](Cc1c[nH]c2ccccc12)C(=O)N[C@@H](CC(C)C)C(=O)N[C@@H](CC(C)C)C(=O)N[C@@H](C)C(=O)NCC(=O)NCC(=O)N1CCC[C@H]1C(=O)N[C@@H](CO)C(=O)N[C@@H](CO)C(=O)NCC(=O)N[C@@H](C)C(=O)N1CCC[C@H]1C(=O)N1CCC[C@H]1C(=O)N1CCC[C@H]1C(=O)N[C@@H](CO)C(=O)N[C@@H](CCCCN)C(N)=O)C(C)C (mixture of isomers) [Compound 105] | 90 |  | 90 |  |  |  |  |  | 10 to 100 | 10 to 100 | 10 to 100 |  | < 10 |  |
| CC[C@H](C)[C@H](NC(=O)[C@H](CO)NC(=O)[C@H](Cc1ccc(O)cc1)NC(=O)[C@H](CC(=O)O)NC(=O)[C@H](CO)NC(=O)[C@@H](NC(=O)[C@H](Cc1ccccc1)NC(=O)[C@@H](NC(=O)CNC(=O)[C@H](CCC(=O)O)NC(=O)CC(C)CC(=O)NCCN1C(=O)CSC1=O)[C@@H](C)O)[C@@H](C)O)C(=O)N[C@@H](Cc1ccc(O)cc1)C(=O)N[C@@H](CC(C)C)C(=O)N[C@@H](CC(=O)O)C(=O)N[C@@H](CCCCN)C(=O)N[C@@H](CCC(N)=O)C(=O)N[C@@H](C)C(=O)N[C@@H](C)C(=O)NC(C)(C)C(=O)N[C@@H](CCC(=O)O)C(=O)N[C@@H](Cc1ccccc1)C(=O)N[C@H](C(=O)N[C@@H](CC(N)=O)C(=O)N[C@@H](Cc1c[nH]c2ccccc12)C(=O)N[C@@H](CC(C)C)C(=O)N[C@@H](CC(C)C)C(=O)N[C@@H](C)C(=O)NCC(=O)NCC(=O)N1CCC[C@H]1C(=O)N[C@@H](CO)C(=O)N[C@@H](CO)C(=O)NCC(=O)N[C@@H](C)C(=O)N1CCC[C@H]1C(=O)N1CCC[C@H]1C(=O)N1CCC[C@H]1C(=O)N[C@@H](CO)C(=O)N[C@@H](CCCCN)C(N)=O)C(C)C (mixture of isomers) [Compound 120] | 91 | 1 to 10 | 91 | 1 to 10 |  | > 1000 |  | > 1000 |  |  |  |  | 6 |  |
